Experimental data taken from article PMC10915170, “New oxadiazole and pyrazoline derivatives as anti-proliferative agents targeting EGFR-TK: design, synthesis, biological evaluation and molecular docking study” (Scientific Reports, 2024).
Where “and” joins values, the source holds several entries; their conditions need not be identical. Identical values can stand only once. Entries after “also recorded” stand apart in the source; their conditions may differ. Like-named read-outs stand apart in the source and are kept apart here.

Experiments:
EGFR-TK = EGFR-TK (Homo sapiens, UniProt P00533); assay: EGFR-TK inhibition assay
WI-38 = assay: MTT cytotoxicity against normal fibroblast cells WI-38; conditions: Homo sapiens, WI-38, read-out: IC50 WI-38
HePG-2 = assay: MTT anti-proliferative assay, HepG-2; conditions: Homo sapiens, HepG2, read-out: IC50 HePG-2
MCF7 = assay: MTT anti-proliferative assay, MCF7; type: cell-based; conditions: Homo sapiens, mean ± SD of three independent experiments
Protocol: (§1) Doxorubicin (DOX) was used as a reference drug.
(§2) Cell lines were obtained from ATCC via Holding company for biological products and vaccines (VACSERA), Cairo, Egypt. Doxorubicin (Dox.) is used as a standard anticancer drug. This colorimetric assay is based on the conversion of yellow (MTT) to a purple formazan derivative by mitochondrial succinate dehydrogenase in viable cells. This colorimetric assay was performed according to the reported method[36],[37].

HepG-2 cells [1] = assay: Cell cycle analysis by PI flow cytometry; type: cell-based, human
Protocol: Cell cycle analysis for compound 5a was performed using the HepG-2 cell lines stained with propidium iodide (PI) and FACSCalibur flow cytometer as mentioned in previous reports.

HER3 = HER3 (Homo sapiens, UniProt P21860); assay: HER3 inhibition assay
HER4 = HER4 (Homo sapiens, UniProt Q15303); assay: HER4 inhibition assay
HepG-2 cells [2] = assay: Intracellular ROS accumulation assay (ELISA); type: cell-based, human; conditions: for ROS: HepG-2, mean ± SD of three experiments, control 105.6 ± 10.8
Text: Under both physiological and pathological circumstances, reactive oxygen species (ROS) such H2O2 and superoxides play a significant role in the activation of apoptosis. It's interesting to note that mitochondria both produce and absorb ROS.
Intracellular reactive oxygen species (ROS) were detected by the EIAab ROS ELISA kit according to the reported method.

HER2 = HER2 (Homo sapiens, UniProt P04626); assay: HER2 inhibition assay
HCT116 = assay: MTT anti-proliferative assay, HCT116; type: cell-based; conditions: Homo sapiens, HCT-116, mean ± SD of three independent experiments
Protocol: as §1, §2

HepG-2 cells [3] = assay: Annexin V-FITC/Propidium iodide dual staining apoptosis assay; type: cell-based, human; conditions: HepG-2, 24 h
Protocol: Liver HepG-2 cancer cells were used in the Annexin V-FITC/Propidium iodide dual staining assay[40] to calculate the percentage of apoptosis induced by compound 5a. As shown in Figs. 6 and Fig. 7, compound 5a induces the early apoptosis in HepG-2 after 24 h incubation by (19.61%) 41.72 folds over the untreated cells (0.47%). Also, it enhances the late apoptotic induction by 11.89% compared to untreated control (0.16%). Cumulatively, compound 5a induced total apoptosis (35.28%) 14.57 folds over the untreated cells (2.42%).
Apoptosis induction for 5a was performed using the HepG-2 cell lines and well-established Annexin 5-FITC/PI detection kit similar to the reported procedures.

[4] = test system: BAX, BCL-2, Cyto c, Casp. 6, 7, 9 and Survivin in HepG-2 cells; assay: RT-PCR gene expression of apoptotic markers; type: cell-based, human; conditions: HepG-2, control = 1
Text: The B cell lymphoma-2 (Bcl-2) family of proteins, which includes pro-apoptotic (Bax, Bak, Bid, and Bad) and anti-apoptotic (Bcl-2, Bcl-xL, and Bcl-w) proteins, mediates the mitochondrial or intrinsic apoptosis pathway. These proteins cause apoptosis by influencing the permeability of the mitochondrial membrane, which results in the release of cytochrome c into the cytosol. The Bax/Bcl-2 ratio is frequently employed as a marker of cell death and is essential for controlling mitochondrial cytochrome c release. It is thought that caspases perform critical functions in modulating the mitochondrial pathway. After cytochrome c is released into the cytosol, caspase-9 is triggered. Caspase-9 can activate effector caspases, such as caspase-3, 6 and 7, which cause cells to enter apoptosis. The various target proteins that the effector caspases cleave are widely dispersed throughout the cell, which causes the morphological modifications that are indicative of apoptosis. Apoptosis is inhibited by the anti-apoptotic protein survivin, which regulates the actions of caspase-9 and effector caspases.
Gene expression analysis was performed by using (iScriptTM OneStep RT-PCR Kit with SYBR® Green) from Bio-Rad according to reported procedure.

EGFR = conditions: cited from earlier work
MCF-7 = conditions: cited from earlier work
HCT116, HepG-2 and MCF7 = assay: MTT assay, all three cancer cell lines (summary range); conditions: Homo sapiens, read-out: IC50 range against all cancer cell lines

Chain of EGFR-TK (P00533 25-1210): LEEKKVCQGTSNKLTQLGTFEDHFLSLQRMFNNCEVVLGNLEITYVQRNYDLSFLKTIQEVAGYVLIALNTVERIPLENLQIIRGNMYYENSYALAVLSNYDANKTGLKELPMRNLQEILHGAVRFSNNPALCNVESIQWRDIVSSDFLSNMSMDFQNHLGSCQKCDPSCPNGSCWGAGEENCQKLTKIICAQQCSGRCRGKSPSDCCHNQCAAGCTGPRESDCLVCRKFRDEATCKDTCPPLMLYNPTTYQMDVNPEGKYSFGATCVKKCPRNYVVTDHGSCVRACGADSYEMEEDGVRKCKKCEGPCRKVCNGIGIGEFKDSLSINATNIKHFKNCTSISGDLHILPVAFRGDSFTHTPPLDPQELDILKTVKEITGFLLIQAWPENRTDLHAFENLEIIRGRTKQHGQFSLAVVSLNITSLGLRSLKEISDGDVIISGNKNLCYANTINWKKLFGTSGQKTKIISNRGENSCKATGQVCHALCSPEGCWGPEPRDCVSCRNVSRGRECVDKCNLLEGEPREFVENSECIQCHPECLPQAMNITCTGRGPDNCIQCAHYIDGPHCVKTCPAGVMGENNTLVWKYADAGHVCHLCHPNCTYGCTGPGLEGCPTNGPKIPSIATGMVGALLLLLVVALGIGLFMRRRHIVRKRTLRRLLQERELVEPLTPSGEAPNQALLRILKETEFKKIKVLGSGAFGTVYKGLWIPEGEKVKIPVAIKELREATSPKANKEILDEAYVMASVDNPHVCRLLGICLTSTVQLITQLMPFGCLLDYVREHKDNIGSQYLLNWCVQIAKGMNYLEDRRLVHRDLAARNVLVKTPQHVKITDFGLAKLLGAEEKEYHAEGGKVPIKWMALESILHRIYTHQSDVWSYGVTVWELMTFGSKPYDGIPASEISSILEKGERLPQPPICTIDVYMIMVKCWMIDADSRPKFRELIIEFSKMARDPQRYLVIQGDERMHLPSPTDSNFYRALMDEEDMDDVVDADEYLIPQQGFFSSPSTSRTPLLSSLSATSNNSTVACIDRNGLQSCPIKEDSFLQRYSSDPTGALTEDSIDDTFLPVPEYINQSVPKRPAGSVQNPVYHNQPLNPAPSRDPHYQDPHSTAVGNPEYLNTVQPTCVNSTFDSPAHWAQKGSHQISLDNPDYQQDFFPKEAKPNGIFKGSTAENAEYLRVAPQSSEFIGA
Chain of HER3 (P21860 20-1342): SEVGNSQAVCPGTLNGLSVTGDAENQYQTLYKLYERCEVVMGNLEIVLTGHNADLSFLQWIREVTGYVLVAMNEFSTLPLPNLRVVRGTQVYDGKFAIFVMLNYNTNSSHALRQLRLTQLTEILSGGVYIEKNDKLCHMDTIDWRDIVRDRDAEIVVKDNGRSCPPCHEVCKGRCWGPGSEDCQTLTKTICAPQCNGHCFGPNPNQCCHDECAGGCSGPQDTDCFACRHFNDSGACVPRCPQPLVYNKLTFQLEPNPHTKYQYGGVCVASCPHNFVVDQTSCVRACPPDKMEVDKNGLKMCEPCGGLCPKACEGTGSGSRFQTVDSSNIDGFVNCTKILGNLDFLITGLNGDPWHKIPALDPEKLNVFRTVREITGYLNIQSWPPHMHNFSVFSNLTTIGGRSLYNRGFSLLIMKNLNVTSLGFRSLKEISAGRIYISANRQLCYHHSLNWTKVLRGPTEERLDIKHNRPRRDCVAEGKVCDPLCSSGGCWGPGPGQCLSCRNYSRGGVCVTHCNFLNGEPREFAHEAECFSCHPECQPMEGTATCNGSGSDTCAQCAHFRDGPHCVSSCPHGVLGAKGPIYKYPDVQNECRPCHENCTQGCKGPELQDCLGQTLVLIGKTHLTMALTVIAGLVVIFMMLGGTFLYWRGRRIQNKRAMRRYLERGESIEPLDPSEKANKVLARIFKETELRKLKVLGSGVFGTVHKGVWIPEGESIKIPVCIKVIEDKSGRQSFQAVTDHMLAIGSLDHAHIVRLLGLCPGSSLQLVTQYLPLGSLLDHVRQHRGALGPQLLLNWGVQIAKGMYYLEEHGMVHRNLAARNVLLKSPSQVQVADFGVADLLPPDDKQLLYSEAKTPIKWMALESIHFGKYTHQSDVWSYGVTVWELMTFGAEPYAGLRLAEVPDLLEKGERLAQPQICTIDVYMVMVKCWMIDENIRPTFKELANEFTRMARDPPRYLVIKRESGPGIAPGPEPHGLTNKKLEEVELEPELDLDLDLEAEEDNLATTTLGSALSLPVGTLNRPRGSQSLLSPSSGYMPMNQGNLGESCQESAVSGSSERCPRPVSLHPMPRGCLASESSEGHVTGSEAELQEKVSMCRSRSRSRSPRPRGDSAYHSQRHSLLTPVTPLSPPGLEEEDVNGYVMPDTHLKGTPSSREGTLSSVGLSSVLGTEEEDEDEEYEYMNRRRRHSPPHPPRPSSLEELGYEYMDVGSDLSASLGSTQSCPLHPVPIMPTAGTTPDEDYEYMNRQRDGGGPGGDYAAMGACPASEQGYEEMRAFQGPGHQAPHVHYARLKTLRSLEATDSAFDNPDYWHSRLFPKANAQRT
Chain of HER4 (Q15303 26-1308): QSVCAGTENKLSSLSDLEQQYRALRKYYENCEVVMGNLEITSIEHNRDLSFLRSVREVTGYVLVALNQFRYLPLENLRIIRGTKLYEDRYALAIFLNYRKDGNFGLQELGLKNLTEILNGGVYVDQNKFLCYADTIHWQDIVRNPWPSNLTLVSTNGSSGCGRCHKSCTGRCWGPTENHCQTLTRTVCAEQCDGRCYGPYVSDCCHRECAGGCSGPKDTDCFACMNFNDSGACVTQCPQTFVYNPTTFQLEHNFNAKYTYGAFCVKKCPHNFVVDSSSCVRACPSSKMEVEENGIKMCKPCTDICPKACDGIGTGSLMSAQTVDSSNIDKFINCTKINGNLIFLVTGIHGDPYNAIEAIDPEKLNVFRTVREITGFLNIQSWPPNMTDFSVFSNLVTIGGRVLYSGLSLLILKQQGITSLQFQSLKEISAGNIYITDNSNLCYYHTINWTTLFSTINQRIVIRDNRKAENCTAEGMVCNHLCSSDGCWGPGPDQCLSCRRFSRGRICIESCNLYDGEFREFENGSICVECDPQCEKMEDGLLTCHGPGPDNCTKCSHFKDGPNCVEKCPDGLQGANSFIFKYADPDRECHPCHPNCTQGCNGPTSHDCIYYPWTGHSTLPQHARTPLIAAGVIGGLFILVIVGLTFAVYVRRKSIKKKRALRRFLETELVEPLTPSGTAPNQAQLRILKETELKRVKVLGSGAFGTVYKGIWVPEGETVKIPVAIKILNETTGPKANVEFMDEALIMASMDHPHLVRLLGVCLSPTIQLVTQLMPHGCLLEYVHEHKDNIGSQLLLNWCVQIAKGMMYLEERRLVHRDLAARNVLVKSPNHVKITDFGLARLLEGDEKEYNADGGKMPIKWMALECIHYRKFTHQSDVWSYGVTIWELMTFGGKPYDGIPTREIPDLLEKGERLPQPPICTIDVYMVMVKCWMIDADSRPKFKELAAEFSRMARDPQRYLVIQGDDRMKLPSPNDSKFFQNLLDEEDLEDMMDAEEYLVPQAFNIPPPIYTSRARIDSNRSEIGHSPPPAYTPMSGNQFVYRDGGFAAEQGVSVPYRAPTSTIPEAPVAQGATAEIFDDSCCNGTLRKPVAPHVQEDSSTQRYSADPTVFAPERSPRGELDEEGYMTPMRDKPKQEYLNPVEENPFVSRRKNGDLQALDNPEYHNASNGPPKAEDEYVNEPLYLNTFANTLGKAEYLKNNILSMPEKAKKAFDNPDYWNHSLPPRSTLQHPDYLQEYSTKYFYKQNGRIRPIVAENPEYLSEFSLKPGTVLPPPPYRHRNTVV
Chain of HER2 (P04626 23-1255): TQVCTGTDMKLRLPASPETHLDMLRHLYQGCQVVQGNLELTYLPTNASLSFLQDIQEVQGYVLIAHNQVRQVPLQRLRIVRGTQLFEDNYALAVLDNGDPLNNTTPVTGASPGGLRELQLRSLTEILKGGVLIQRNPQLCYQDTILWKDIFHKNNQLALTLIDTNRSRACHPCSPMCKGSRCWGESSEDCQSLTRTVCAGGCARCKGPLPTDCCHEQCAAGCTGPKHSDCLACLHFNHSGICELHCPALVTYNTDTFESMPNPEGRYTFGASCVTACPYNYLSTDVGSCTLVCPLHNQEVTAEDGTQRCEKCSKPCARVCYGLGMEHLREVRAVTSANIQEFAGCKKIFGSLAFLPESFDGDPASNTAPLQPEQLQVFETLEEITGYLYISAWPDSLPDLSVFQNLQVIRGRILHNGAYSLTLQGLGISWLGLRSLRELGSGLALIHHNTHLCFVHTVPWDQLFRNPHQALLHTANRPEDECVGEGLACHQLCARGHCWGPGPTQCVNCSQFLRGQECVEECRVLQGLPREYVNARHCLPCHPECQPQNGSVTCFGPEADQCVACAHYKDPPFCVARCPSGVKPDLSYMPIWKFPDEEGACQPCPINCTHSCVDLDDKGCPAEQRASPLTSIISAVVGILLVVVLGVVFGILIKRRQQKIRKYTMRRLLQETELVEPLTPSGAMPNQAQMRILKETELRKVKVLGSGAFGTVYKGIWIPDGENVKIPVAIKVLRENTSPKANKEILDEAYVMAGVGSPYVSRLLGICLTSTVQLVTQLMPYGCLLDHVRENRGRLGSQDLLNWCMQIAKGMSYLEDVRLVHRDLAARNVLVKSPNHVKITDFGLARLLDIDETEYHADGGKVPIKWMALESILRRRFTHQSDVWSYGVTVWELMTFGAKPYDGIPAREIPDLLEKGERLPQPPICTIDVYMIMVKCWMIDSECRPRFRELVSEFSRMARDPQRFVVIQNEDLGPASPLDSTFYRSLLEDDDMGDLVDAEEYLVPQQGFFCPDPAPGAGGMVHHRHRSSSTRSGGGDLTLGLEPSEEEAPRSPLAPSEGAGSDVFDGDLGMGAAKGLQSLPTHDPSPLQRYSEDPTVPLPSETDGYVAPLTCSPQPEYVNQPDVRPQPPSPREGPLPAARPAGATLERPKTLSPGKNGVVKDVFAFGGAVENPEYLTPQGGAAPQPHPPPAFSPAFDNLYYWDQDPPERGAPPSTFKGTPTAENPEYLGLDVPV

SMILES	IC50 (WI-38) [µM]	IC50 (HePG-2) [µM]	IC50 (MCF7) [µM]	IC50 (HCT116) [µM]	melting point [°C]	also measured
c1ccc(COc2ccc(-c3nnc(SCc4ccccc4)o3)cc2)cc1 [Compound 5a, 2-(4-(Benzyloxy)phenyl)-5-(benzylthio)-1,3,4-oxadiazole]	53.9 ± 3	35.6 ± 2.2	78.5 ± 4.1	64.4 ± 3.7	–	IC50 (EGFR-TK): 90 nM; Comment (cell cycle arrest phase) (HepG-2 cells [1]; HepG-2, 24 h): arrested the cell cycle on HepG-2 at a G1/S phase; also recorded: cell cycle arrest at G1/S phase; also recorded: cell growth arrest at G1/S; %G2/M (HepG-2 cells [1]; HepG-2, IC50 concentration, 24 h, untreated control 17.05): 6.64%; %S (HepG-2 cells [1]; HepG-2, IC50 concentration, 24 h, untreated control 37.09): 41.03%; %G0-G1 (HepG-2 cells [1]; HepG-2, IC50 concentration, 24 h, untreated control 45.86): 52.33%; IC50 (HER3): 180 ± 6 nM; IC50 (HER4): 370 ± 15 nM; ROS (HepG-2 cells [2]): 247.8 pg/mL and 247.8 ± 31.1 pg/mL; ROS Fold (HepG-2 cells [2]; HepG-2, versus control = 1): 2.34 fold; IC50 (HER2): 720 ± 28 nM; early apoptosis, folds over the untreated cells (HepG-2 cells [3]): 41.72 folds; total apoptosis, folds over the untreated cells (HepG-2 cells [3]): 14.57 folds; late apoptosis (Q2) (HepG-2 cells [3]; untreated 0.16%): 11.89%; early apoptosis (Q4) (HepG-2 cells [3]; untreated 0.47%): 19.61%; RT-PCR Fold Change Bax [4]: 4.95 fold; RT-PCR Fold Change Casp. 6 [4]: 6.67 fold; RT-PCR Fold Change Casp. 7 [4]: 7.57 fold; RT-PCR Fold Change Casp. 9 [4]: 4.23 fold; RT-PCR Fold Change Cyto c [4]: 3.82 fold
O=C(CSc1nnc(-c2ccc3nccnc3c2)o1)c1ccc([N+](=O)[O-])cc1 [II]	–	–	–	–	–	IC50 (EGFR): 950 nM
c1ccc(COc2ccc(-c3nnc(SC4CCCC4)o3)cc2)cc1 [Compound 5e, 2-(4-(Benzyloxy)phenyl)-5-(cyclopentylthio)-1,3,4-oxadiazole]	11.7 ± 0.9	59.3 ± 3.4	86.8 ± 4.5	75.6 ± 4.2	91 to 93	–
COc1cc2ncnc(Nc3ccc(F)c(Cl)c3)c2cc1OCCCN1CCOCC1 [Gefitinib, reference compound]	–	–	–	–	–	ROS (HepG-2 cells [2]): 260 ± 14.7 pg/mL; ROS (HepG-2 cells [2]; listed as gefitinib): 260 pg/mL
c1ccc(COc2ccc(-c3nnc(SC4CCCCCC4)o3)cc2)cc1 [Compound 5d, 2-(4-(Benzyloxy)phenyl)-5-(cycloheptylthio)-1,3,4-oxadiazole]	46.6 ± 2.7	82.8 ± 4.5	> 100	88.6 ± 4.8	83 to 85	–
COc1ccc(C2CC(c3ccc(OCc4ccccc4)cc3)=NN2C(C)=O)cc1OC (stereo not shown) [Compound 9c, 1-(3-(4-(Benzyloxy)phenyl)-5-(3,4-dimethoxyphenyl)-4,5-dihydro-1H-pyrazol-1-yl)ethan-1-one]	49.6 ± 2.8	12.2 ± 0.9	8.53 ± 0.6	16.2 ± 1.2	85 to 87	–
CC(=O)N1N=C(c2ccc(OCc3ccccc3)cc2)CC1c1cccc([N+](=O)[O-])c1 (stereo not shown) [Compound 9b, 1-(3-(4-(Benzyloxy)phenyl)-5-(3-nitrophenyl)-4,5-dihydro-1H-pyrazol-1-yl)ethan-1-one]	55.9 ± 3.2	7.83 ± 0.5	15.2 ± 1.2	10.2 ± 0.9	127 to 129	IC50 (EGFR-TK): 200 ± 10 nM
NC(=O)N1N=C(c2ccncc2)CC1c1cn(-c2ccccc2)nc1-c1ccc(OCc2ccccc2)cc1 (stereo not shown) [VI]	–	–	–	–	–	IC50 (EGFR): 3650 nM
COc1ccc(C2=NN(C(C)=O)C(/C=C/c3ccccc3)C2)cc1 (stereo not shown) [IV]	–	–	–	–	–	IC50 (EGFR): 460 nM; IC50 (MCF-7): 4330 nM
COc1ccc(C2CC(c3ccc(OCc4ccccc4)cc3)=NN2)cc1OC (stereo not shown) [Compound 10c, 3-(4-(Benzyloxy)phenyl)-5-(3,4-dimethoxyphenyl)-4,5-dihydro-1H-pyrazole]	41.2 ± 2.4	1.82 ± 0.1	2.86 ± 0.1	5.55 ± 0.3	128 to 130	IC50 (EGFR-TK): 270 ± 10 nM; IC50 (HCT116, HepG-2 and MCF7): 1.82 to 5.55 µM
CCOC(=O)CSc1nnc(-c2ccc(OCc3ccccc3)cc2)o1 [Compound 5f., Ethyl 2-((5-(4-(benzyloxy)phenyl)-1,3,4-oxadiazol-2-yl)thio)acetate]	77.3 ± 3.9	91.3 ± 5	> 100	> 100	100 to 102	–
Nc1ccccc1-c1nnc(SCc2ccccc2)o1 [III]	–	–	–	–	–	IC50 (EGFR): 1510 nM
Cc1ccc(CSc2nnc(-c3ccc(OCc4ccccc4)cc3)o2)cc1 [Compound 5c, 2-(4-(Benzyloxy)phenyl)-5-((4-methylbenzyl)thio)-1,3,4-oxadiazole]	> 100	71.4 ± 3.9	92.2 ± 4.9	79.8 ± 4.4	130 to 132	–
Nc1cc(-c2nnc(SCC(=O)c3ccccc3)o2)ccn1 [I]	–	–	–	–	–	IC50 (MCF-7): 10 nM
COc1cccc2c1C(=O)c1c(O)c3c(c(O)c1C2=O)C[C@@](O)(C(=O)CO)C[C@@H]3O[C@H]1C[C@H](N)[C@H](O)[C@H](C)O1 [DOX, Doxorubicin, reference compound]	–	4.5 ± 0.2	–	–	–	–
CC(=O)N1N=C(c2ccc(-c3cncnc3)cc2)CC1c1ccc(F)cc1 (stereo not shown) [V]	–	–	–	–	–	EGFR inhibition rate (EGFR; 0.19 μM concentration): 83%; EGFR inhibition rate (EGFR; 50 μM concentration): 82%
Clc1ccc(CSc2nnc(-c3ccc(OCc4ccccc4)cc3)o2)cc1 [Compound 5b, 2-(4-(Benzyloxy)phenyl)-5-((4-chlorobenzyl)thio)-1,3,4-oxadiazole]	13.2 ± 1.1	38.1 ± 2.2	84.3 ± 4.4	73.2 ± 4.2	125 to 127	–
O=[N+]([O-])c1cccc(C2CC(c3ccc(OCc4ccccc4)cc3)=NN2)c1 (stereo not shown) [Compound 10b, 3-(4-(Benzyloxy)phenyl)-5-(3-nitrophenyl)-4,5-dihydro-1H-pyrazole]	37.9 ± 2.3	3.98 ± 0.2	5.97 ± 0.3	8.73 ± 0.7	108 to 110	IC50 (EGFR-TK): 160 nM
CC(=O)N1N=C(c2ccc(OCc3ccccc3)cc2)CC1c1cccc(Br)c1 (stereo not shown) [Compound 9a, 1-(3-(4-(Benzyloxy)phenyl)-5-(3-bromophenyl)-4,5-dihydro-1H-pyrazol-1-yl)ethan-1-one]	85.1 ± 4.1	32.6 ± 2.1	46.1 ± 2.5	55.3 ± 3.1	93 to 95	–
Brc1cccc(C2CC(c3ccc(OCc4ccccc4)cc3)=NN2)c1 (stereo not shown) [Compound 10a, 3-(4-(Benzyloxy)phenyl)-5-(3-bromophenyl)-4,5-dihydro-1H-pyrazole]	62.3 ± 3.4	6.32 ± 0.4	8.11 ± 0.6	9.94 ± 0.8	86 to 88	IC50 (EGFR-TK): 700 ± 30 nM
